Results as given in the supplement of paper PMC10307832.

Tests used:
Test in all cases: relative viability (nuclei count vs DMSO), 5 days (fraction); higher = more cells survive
NCI-H1299 = tested on: NCI-H1299
In short: (§1)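 One day after seeding in 1536-well plates, lung cancer cell lines were dosed by pin tool. Dosing was either single-drug or a fixed anchor-drug dose plus five library-drug doses (not always all listed) in √10 steps. After 5 days, nuclei were stained in one fix-and-stain step and counted on 4× images, and relative viability is the nuclei count of treated wells over that of vehicle wells, given as the median of duplicate plates.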

NCI-H596 = tested on: NCI-H596
In short: as §1

NCI-H1734 = tested on: NCI-H1734
In short: as §1

NCI-H2405 = tested on: NCI-H2405
In short: as §1

EBC-1 = tested on: EBC-1
In short: as §1

A549 = tested on: A549
In short: as §1

NCI-H2085 = tested on: NCI-H2085
In short: as §1

CAL-12T = tested on: CAL-12T
In short: as §1

Calu-6 = tested on: Calu-6
In short: as §1

IA-LM = tested on: IA-LM
In short: as §1

HCC-366 = tested on: HCC-366
In short: as §1

NCI-H1703 = tested on: NCI-H1703
In short: as §1

NCI-H1993 = tested on: NCI-H1993
In short: as §1

NCI-H1648 = tested on: NCI-H1648
In short: as §1

Compound COCC1(CO)C(=O)C2CCN1CC2 (stereo not given) [PRIMA-1MET] + CC1(C)CCC(c2ccc(Cl)cc2)=C(CN2CCN(c3ccc(C(=O)NS(=O)(=O)c4ccc(N[C@H](CCN5CCOCC5)CSc5ccccc5)c(S(=O)(=O)C(F)(F)F)c4)cc3)CC2)C1 [Navitoclax] (partner 0.5 µM) has a relative viability (NCI-H1299; first compound 0.2 µM) of 1.14, a relative viability (NCI-H1299; first compound 0.6325 µM) of 1.04 and a relative viability (NCI-H1299; first compound 2 µM) of 1.05. For the same compound, the relative viability (NCI-H1299; first compound 6.325 µM) was 1.11, the relative viability (NCI-H1299; first compound 20 µM) was 1.04 and the relative viability (NCI-H596; first compound 0.2 µM) was 1. For the same compound, the relative viability (NCI-H596; first compound 0.6325 µM) was 0.797, the relative viability (NCI-H596; first compound 2 µM) was 1.01 and the relative viability (NCI-H596; first compound 6.325 µM) was 1.08. The relative viability (NCI-H596; first compound 20 µM) was 0.982, the relative viability (NCI-H1734; first compound 0.2 µM) was 0.943 and the relative viability (NCI-H1734; first compound 0.6325 µM) was 0.772. For the same compound, the relative viability (NCI-H1734; first compound 2 µM) was 0.744, the relative viability (NCI-H1734; first compound 6.325 µM) was 0.922 and the relative viability (NCI-H1734; first compound 20 µM) was 0.221. For the same compound, the relative viability (NCI-H2405; first compound 0.2 µM) was 0.676, the relative viability (NCI-H2405; first compound 0.6325 µM) was 0.989 and the relative viability (NCI-H2405; first compound 6.325 µM) was 0.52. It also gave a relative viability (NCI-H2405; first compound 20 µM) of 0.078, a relative viability (EBC-1; first compound 0.2 µM) of 0.379 and a relative viability (EBC-1; first compound 0.6325 µM) of 0.37. For the same compound, the relative viability (EBC-1; first compound 2 µM) was 0.427, the relative viability (EBC-1; first compound 6.325 µM) was 0.416 and the relative viability (EBC-1; first compound 20 µM) was 0.151. It also gave a relative viability (A549; first compound 0.2 µM) of 1.35, a relative viability (A549; first compound 0.6325 µM) of 1.09 and a relative viability (A549; first compound 2 µM) of 1.23. The relative viability (A549; first compound 6.325 µM) was 1.16, the relative viability (A549; first compound 20 µM) was 1.08 and the relative viability (NCI-H2085; first compound 0.2 µM) was 1.2. The relative viability (NCI-H2085; first compound 0.6325 µM) was 1.04, the relative viability (NCI-H2085; first compound 2 µM) was 1.09 and the relative viability (NCI-H2085; first compound 6.325 µM) was 0.734. The relative viability (NCI-H2085; first compound 20 µM) was 0.364, the relative viability (CAL-12T; first compound 0.2 µM) was 1.3 and the relative viability (CAL-12T; first compound 0.6325 µM) was 1.32. The relative viability (CAL-12T; first compound 2 µM) was 1.15, the relative viability (CAL-12T; first compound 6.325 µM) was 1.3 and the relative viability (CAL-12T; first compound 20 µM) was 0.583. For the same compound, the relative viability (Calu-6; first compound 0.2 µM) was 0.97, the relative viability (Calu-6; first compound 0.6325 µM) was 0.823 and the relative viability (Calu-6; first compound 2 µM) was 0.845. The relative viability (Calu-6; first compound 6.325 µM) was 0.781, the relative viability (Calu-6; first compound 20 µM) was 0.305 and the relative viability (IA-LM; first compound 0.2 µM) was 0.657. For the same compound, the relative viability (IA-LM; first compound 0.6325 µM) was 0.769, the relative viability (IA-LM; first compound 2 µM) was 0.714 and the relative viability (IA-LM; first compound 6.325 µM) was 0.949. For the same compound, the relative viability (IA-LM; first compound 20 µM) was 0.806, the relative viability (HCC-366; first compound 0.2 µM) was 1.27 and the relative viability (HCC-366; first compound 0.6325 µM) was 0.959. It also gave a relative viability (HCC-366; first compound 6.325 µM) of 0.981, a relative viability (HCC-366; first compound 20 µM) of 0.024 and a relative viability (NCI-H1703; first compound 0.2 µM) of 1.43. For the same compound, the relative viability (NCI-H1703; first compound 0.6325 µM) was 0.891, the relative viability (NCI-H1703; first compound 2 µM) was 1.18 and the relative viability (NCI-H1703; first compound 6.325 µM) was 1.21. For the same compound, the relative viability (NCI-H1703; first compound 20 µM) was 0.0405, the relative viability (NCI-H1993; first compound 0.2 µM) was 0.997 and the relative viability (NCI-H1993; first compound 0.6325 µM) was 0.772. The relative viability (NCI-H1993; first compound 2 µM) was 0.813, the relative viability (NCI-H1993; first compound 6.325 µM) was 0.889 and the relative viability (NCI-H1993; first compound 20 µM) was 1.02.

COCC1(CO)C(=O)C2CCN1CC2 (stereo not given) [PRIMA-1MET] + CC(=O)Nc1cccc(-n2c(=O)n(C3CC3)c(=O)c3c(Nc4ccc(I)cc4F)n(C)c(=O)c(C)c32)c1 [Trametinib] (partner 0.02 µM) showed a relative viability (NCI-H596; first compound 0.2 µM) of 0.888, a relative viability (NCI-H596; first compound 0.6325 µM) of 0.718 and a relative viability (NCI-H596; first compound 2 µM) of 0.66. It also gave a relative viability (NCI-H596; first compound 6.325 µM) of 0.837, a relative viability (NCI-H596; first compound 20 µM) of 0.119 and a relative viability (NCI-H1734; first compound 0.2 µM) of 0.564. For the same compound, the relative viability (NCI-H1734; first compound 0.6325 µM) was 0.622, the relative viability (NCI-H1734; first compound 2 µM) was 0.584 and the relative viability (NCI-H1734; first compound 6.325 µM) was 0.581. For the same compound, the relative viability (NCI-H1734; first compound 20 µM) was 0.0425, the relative viability (NCI-H2405; first compound 0.2 µM) was 0.399 and the relative viability (NCI-H2405; first compound 0.6325 µM) was 0.598. For the same compound, the relative viability (NCI-H2405; first compound 6.325 µM) was 0.463, the relative viability (NCI-H2405; first compound 20 µM) was 0.0947 and the relative viability (NCI-H2085; first compound 0.2 µM) was 0.618. For the same compound, the relative viability (NCI-H2085; first compound 0.6325 µM) was 0.61, the relative viability (NCI-H2085; first compound 2 µM) was 0.508 and the relative viability (NCI-H2085; first compound 6.325 µM) was 0.427. The relative viability (NCI-H2085; first compound 20 µM) was 0.141, the relative viability (CAL-12T; first compound 0.2 µM) was 0.274 and the relative viability (CAL-12T; first compound 0.6325 µM) was 0.319. It also gave a relative viability (CAL-12T; first compound 2 µM) of 0.313, a relative viability (CAL-12T; first compound 6.325 µM) of 0.235 and a relative viability (CAL-12T; first compound 20 µM) of 0.15. The relative viability (HCC-366; first compound 0.2 µM) was 0.288, the relative viability (HCC-366; first compound 0.6325 µM) was 0.289 and the relative viability (HCC-366; first compound 2 µM) was 0.263. It also gave a relative viability (HCC-366; first compound 6.325 µM) of 0.431, a relative viability (HCC-366; first compound 20 µM) of 0.0205 and a relative viability (NCI-H1993; first compound 0.2 µM) of 0.619. For the same compound, the relative viability (NCI-H1993; first compound 2 µM) was 0.588, the relative viability (NCI-H1993; first compound 6.325 µM) was 0.534 and the relative viability (NCI-H1993; first compound 20 µM) was 0.514. The relative viability (NCI-H1648; first compound 0.2 µM) was 0.396, the relative viability (NCI-H1648; first compound 2 µM) was 0.445 and the relative viability (NCI-H1648; first compound 20 µM) was 0.553.

Work on COCC1(CO)C(=O)C2CCN1CC2 (stereo not given) [PRIMA-1MET] + CC(=O)c1c(C)c2cnc(Nc3ccc(N4CCNCC4)cn3)nc2n(C2CCCC2)c1=O [Palbociclib] (partner 0.5 µM) yielded a relative viability (NCI-H1734; first compound 0.2 µM) of 0.362, a relative viability (NCI-H1734; first compound 0.6325 µM) of 0.306 and a relative viability (NCI-H1734; first compound 2 µM) of 0.369. For the same compound, the relative viability (NCI-H1734; first compound 6.325 µM) was 0.345, the relative viability (NCI-H1734; first compound 20 µM) was 0.053 and the relative viability (NCI-H2405; first compound 0.2 µM) was 0.487. It also gave a relative viability (NCI-H2405; first compound 0.6325 µM) of 0.539, a relative viability (NCI-H2405; first compound 6.325 µM) of 0.518 and a relative viability (NCI-H2405; first compound 20 µM) of 0.24. The relative viability (NCI-H2085; first compound 0.2 µM) was 0.526, the relative viability (NCI-H2085; first compound 0.6325 µM) was 0.515 and the relative viability (NCI-H2085; first compound 2 µM) was 0.475. It also gave a relative viability (NCI-H2085; first compound 6.325 µM) of 0.472, a relative viability (NCI-H2085; first compound 20 µM) of 0.166 and a relative viability (CAL-12T; first compound 0.2 µM) of 0.339. For the same compound, the relative viability (CAL-12T; first compound 0.6325 µM) was 0.373, the relative viability (CAL-12T; first compound 2 µM) was 0.446 and the relative viability (CAL-12T; first compound 6.325 µM) was 0.439. For the same compound, the relative viability (CAL-12T; first compound 20 µM) was 0.0494, the relative viability (HCC-366; first compound 0.2 µM) was 0.433 and the relative viability (HCC-366; first compound 0.6325 µM) was 0.31. It also gave a relative viability (HCC-366; first compound 2 µM) of 0.382, a relative viability (HCC-366; first compound 6.325 µM) of 0.407 and a relative viability (HCC-366; first compound 20 µM) of 0.0167. The relative viability (NCI-H1993; first compound 0.2 µM) was 0.668, the relative viability (NCI-H1993; first compound 2 µM) was 0.715 and the relative viability (NCI-H1993; first compound 6.325 µM) was 0.698. For the same compound, the relative viability (NCI-H1993; first compound 20 µM) was 0.703, the relative viability (NCI-H1648; first compound 0.2 µM) was 0.251 and the relative viability (NCI-H1648; first compound 2 µM) was 0.283. The relative viability (NCI-H1648; first compound 20 µM) was 0.283.
